Data: patent publication EP0346132A1, “Pharmaceutical products” (priority 1988, dated 1989)
Values after ≈ are worked out from the molar mass of the structure shown. “Also recorded” adds a separate entry of the source. Read-outs that look alike come from different tables or passages of the source.

Tests used:
HIV [1] = assay: Anti-HIV assay (protection of infected cells, XTT microculture tetrazolium assay); type: cell-based; conditions: for inhibit the infection and killing of human T lymphocytes (Th cells) by HIV / activity against HIV: statement in words; for activity against HIV: in vitro
Source text: (§1) Compound 14a was screened for anti-HIV activity at the National Cancer Institute, Frederick Cancer Research Facility, Frederick, Maryland (FCRF). The screening mode operational procedures utilized at FCRF are set forth in detail in U.S. patent application Serial No. 07/146,252, filed January 20, 1988, the disclosure of which is incorporated by reference herein.
(§2) Figure 2 depicts a plot of the percentage of test cells over uninfected cells (%) for both infected and uninfected cells as a function of the increasing concentration of compound 14a.
(§3) The data plotted on Figure 2 permit the calculation of an effective concentration (EC₅₀) with respect to infected cells of about 0.15 µg/ml, an inhibitory concentration (IC₅₀) with respect to normal cells of about 100 µg/ml, and a therapeutic index (TI₅₀) of about 667. An earlier assay carried out at the Southern Research Institute yielded a TI₅₀ of about 200 when MT-2 cells were cultured with H9/HTLV-IIIB.
The following are the current screening mode operational procedures utilized at Southern Research Institute, Birmingham, AL. The procedure consists of 3 operations: 1) preparation of infected cells and distribution of the test plates; 2) preparation of drug dilution plates and distribution to the test plates; and 3) XTT assay procedure.
(§4) Cells to be treated in 50 ml conical centrifuge tubes for 30 minutes with 1-2 µg/ml of polybrene at 37°C, and pelleted (8 min., 1200 RPM). Virus is added [in RMPI-1640, 10% fetal calf serum (FCS), with interleukin-2 (IL-2) (for ATH8 cells), and antibiotics] to provide an MOI of approximately 0.01. An MOI of 0.01 is obtained by adding 10³ infectious units of virus to 10⁵ cells. Medium alone is added to virus-free control cells. The treated or control cells are incubated for 1 hour at 37°C in 5% CO₂ in air. Infected or uninfected cells are diluted to give 1 x 10⁴ cells/100 µl (2 x 10⁴ cells/100 µl for ATH8 cells). Infected or uninfected cells (100 µl) are distributed to appropriate wells of a 96 well, U-bottom, microtiter plate. Each compound dilution is tested in duplicate with infected cells. Uninfected cells are examined for drug sensitivity in a single well for each dilution of compound. Drug free control cells, infected and uninfected, are run in triplicate in wells B3 through D3 and E3 through G3, respectively. Wells A4 through A11 and H4 through H11 are drug blanks and get medium alone at this point. The plates are then incubated at 37°C in 5% CO₂ until ready for drug addition.
The first dilution of each drug is made in a test tube according to the dilution specified hereinbelow. The remaining dilutions are made in 96-well plates. All wells of each plate are filled with 225 µl of medium using a Cetus liquid handling system programed according to the plate filling worksheet. Twenty-five microliters (25 µl) of 2 diluted compounds are manually added to row 11 of a filled dilution plate in the same order in which the drugs will appear on the test plate. The two compounds are then serially diluted 10 fold from row 11 through row 4, using the Cetus liquid handling system, preprogramed with the serial dilution file worksheet.
Using a multi-channel pipettor with […], 100 µl of each drug dilution is transferred to the test plate; 100 µl from wells A4 through H4 of the dilution plate to the same wells of the test plate. Wells B3 through G3 and B2 through G2 receive medium alone.
Test plates are incubated at 37°C in 5% CO₂ in air for 7 days or until virus control cells are lysed as determined microscopically.
An XTT-PMS solution is prepared immediately prior to its addition to the wells of the culture dish [1 mg/ml XTT; 2,3-bis(2-methoxy-4-nitro-5-sulfophenyl)-5-(phenylamino)carbonyl-2H-tetrazolium hydroxide solution in media without FCS]. The stock PMS (phenazine methosulfate (15.3 mg PMS/ml FBS)) solution is diluted 1:100 (0.153 mg/ml). […]

[2] = Anti-HIV assay, toxicity to uninfected (normal) cells, MT-2; type: cell-based; conditions: human, mt-2 cells, ID₅₀
Source text: as §1, §2, §3, §4

P-388 Leukemia Cells = assay: P-388 mouse leukemia cell culture cytotoxicity assay; type: cell-based; conditions: P388, inhibitory (cytotoxicity) concentration for P-388 leukemia cells in culture, read-out: ED₅₀
Source text: The ED₅₀ cytotoxicity concentrations determined for analogs 7a, 9a, 10a, 16a, and 17a in the P-388 mouse leukemia cell culture assay are given in Table II.

MT-2 = assay: Anti-HIV assay, toxicity to uninfected (normal) cells, MT-2; type: cell-based; conditions: Homo sapiens, MT2; Figure 2; screened at FCRF; normal cells; read-out: inhibitory concentration (IC₅₀) with respect to normal cells
Source text: as §1, §2, §3, §4

[3] = Anti-HIV assay, toxicity to uninfected (normal) cells, ATH-8; type: cell-based; conditions: human, ath-8 cells; first ID₅₀ column (c2); Cell Line ATH-8
Source text: as §1, §3
(§5) Cells to be treated in 50 ml conical centrifuge tubes for 30 minutes with 1-2 µg/ml of polybrene at 37°C, and pelleted (8 min., 1200 RPM). Virus is added [in RMPI-1640, 10% fetal calf serum (FCS), with interleukin-2 (IL-2) (for ATH8 cells), and antibiotics] to provide an MOI of approximately 0.01. An MOI of 0.01 is obtained by adding 10³ infectious units of virus to 10⁵ cells. Medium alone is added to virus-free control cells. The treated or control cells are incubated for 1 hour at 37°C in 5% CO₂ in air. […] The plates are then incubated at 37°C in 5% CO₂ until ready for drug addition.

HSV-1 = assay: Activity against Herpes Simplex Virus Type 1; conditions: statement in words
[4] = Anti-HIV assay, toxicity to uninfected (normal) cells, MT-2C; type: cell-based; conditions: human, mt-2c cells
Source text: as §1, §3, §5

[5] = Anti-HIV assay, toxicity to uninfected (normal) cells, CEM-C; type: cell-based; conditions: human, first ID₅₀ column (c2), Cell Line CEM-C
Source text: as §1, §3, §5

HIV [6] = conditions: background and literature; statement in words; cited from earlier work
HIV [7] = conditions: early clinical trials; statement in words; cited from earlier work
[8] = Human immunodeficiency virus 1, Cell Line MT-2, read-out: ED₅₀
[9] = Human immunodeficiency virus 1, Cell Line MT-2C, read-out: ED₅₀

CC(=O)OC[C@@H]1C=C[C@H](n2cnc3c(=O)[nH]c(N)nc32)C1 (racemic) [1α-acetate ester of 14a, (1α,2α)-4-(2-Amino-6-hydroxy-9H-purin-9-yl)-2-cyclopentenyl Acetoxycarbinol]
inhibition at 6 µg/mL (HIV [1]; Human immunodeficiency virus 1, against HIV at 6 µg/ml): 28%

Nc1c(Cl)ncnc1N[C@H]1C=C[C@@H](CO)C1 (racemic) [Compound 3a, (±)-(1α,4α)-4-[(5-Amino-6-chloro-4-pyrimidinyl)-amino]-2-cyclopentenylcarbinol]
inhibit the infection and killing of human T lymphocytes (Th cells) by HIV (HIV [1]): effective

Nc1c(Cl)ncnc1N[C@H]1CC[C@@H](CO)C1 (racemic) [Compound 3b]
inhibit the infection and killing of human T lymphocytes (Th cells) by HIV (HIV [1]): effective

Nc1nc(Cl)cc(N[C@H]2C=C[C@@H](CO)C2)n1 (racemic) [Compound 4a, (±)-(1α,4α)-4-[(2-Amino-6-chloro-4-pyrimidinyl)-amino]-2-cyclopentenylcarbinol]
inhibit the infection and killing of human T lymphocytes (Th cells) by HIV (HIV [1]): effective

Nc1nc(Cl)cc(N[C@H]2CC[C@@H](CO)C2)n1 (racemic) [Compound 4b]
inhibit the infection and killing of human T lymphocytes (Th cells) by HIV (HIV [1]): effective

Nc1nc(Cl)c(N=Nc2ccc(Cl)cc2)c(N[C@H]2C=C[C@@H](CO)C2)n1 (racemic) [Compound 5a, (±)-(1α,4α)-4-{[2-Amino-6-chloro-5-(4-chlorophenyl)-azo]-4-pyrimidinyl]-amino}-2-cyclopentenylcarbinol]
inhibit the infection and killing of human T lymphocytes (Th cells) by HIV (HIV [1]): effective

Nc1nc(Cl)c(N)c(N[C@H]2C=C[C@@H](CO)C2)n1 (racemic) [Compound 6a, (±)-(1α,4α)-4-[(2,5-Diamino-6-chloro-4-pyrimidinylamino]-2 cyclopentenylcarbinol]
inhibit the infection and killing of human T lymphocytes (Th cells) by HIV (HIV [1]): effective

OC[C@@H]1C=C[C@H](n2cnc3c(Cl)ncnc32)C1 (racemic) [Compound 7a, (±)-(1α,4α)-4-(6-chloro-9H-purin-9-yl)-2-cyclopentenylcarbinol]
CC50 [2]: 58.5 µg/mL (≈ 233 µM) | IC50 (P-388 Leukemia Cells): 12 µg/mL (≈ 47.9 µM) | activity against HIV (HIV [1]): active | inhibit the infection and killing of human T lymphocytes (Th cells) by HIV (HIV [1]): effective

O=c1[nH]cnc2c1ncn2[C@H]1C=C[C@@H](CO)C1 (racemic) [Compound 8a, (±)-(1α,4α)-4-(6-Hydroxy-9H-purin-9-yl)-2-cyclopentenylcarbinol]
inhibit the infection and killing of human T lymphocytes (Th cells) by HIV (HIV [1]): effective

Nc1ncnc2c1ncn2[C@H]1C=C[C@@H](CO)C1 (racemic) [Compound 9a, (±)-(1α,4α)-4-(6-Amino-9H-purin-9-yl)-2-cyclopentenylcarbinol]
CC50 [2]: 50 µg/mL (≈ 216 µM) | IC50 (P-388 Leukemia Cells): 40 µg/mL (≈ 173 µM) | EC50 (HIV [1]; [8]): 2.3 µg/mL (≈ 9.95 µM) | activity against HIV (HIV [1]): active | inhibit the infection and killing of human T lymphocytes (Th cells) by HIV (HIV [1]): effective

OC[C@@H]1C=C[C@H](n2cnc3c(S)ncnc32)C1 (racemic) [Compound 10a, (±)-(1α,4α)-4-(6-Mercapto-9H-purin-9-yl)-2-cyclopentenylcarbinol]
CC50 [2]: 7.33 µg/mL (≈ 29.5 µM) | IC50 (P-388 Leukemia Cells): 3 µg/mL (≈ 12.1 µM) | activity against HIV (HIV [1]): active | inhibit the infection and killing of human T lymphocytes (Th cells) by HIV (HIV [1]): effective

Nc1nc(Cl)c2ncn([C@H]3C=C[C@@H](CO)C3)c2n1 (racemic) [Compound 13a, (±)-(1α,4α)-4-(2-Amino-6-chloro-9H-purin-9-yl)-2-cyclopentenyl carbinol]
CC50 [2]: 6.97 µg/mL (≈ 26.2 µM) | EC50 (HIV [1]; [8]): 0.41 µg/mL (≈ 1.54 µM) | activity against HIV (HIV [1]): active | inhibit the infection and killing of human T lymphocytes (Th cells) by HIV (HIV [1]): effective

Nc1nc2c(ncn2[C@H]2C=C[C@@H](CO)C2)c(=O)[nH]1 (racemic) [Compound 14a, (±)-(1α,4α)-4-(2-Amino-6-hydroxy-9H-purin-9-yl)-2-cyclopentenyl carbinol]
IC50 (MT-2): ~100 µg/mL (≈ 404 µM) | CC50 [3]: 55.3 µg/mL (≈ 224 µM) | active against HSV-1 (HSV-1): active | therapeutic index (TI₅₀) (HIV [1]; Figure 2, screened at FCRF): about 667 | EC50 (HIV [1]; Human immunodeficiency virus 1, ATH-8, Cell Line ATH-8, read-out: ED₅₀): 0.2 µg/mL (≈ 0.809 µM) | EC50 (HIV [1]; Human immunodeficiency virus 1, Figure 2, screened at FCRF, read-out: effective concentration (EC₅₀) with respect to infected cells): ~0.15 µg/mL (≈ 0.607 µM) | TI₅₀ (HIV [1]; earlier assay at Southern Research Institute, MT-2 cells cultured with H9/HTLV-IIIB): about 200 | activity against HIV (HIV [1]): strongly inhibits HIV infectivity in vitro | inhibit the infection and killing of human T lymphocytes (Th cells) by HIV (HIV [1]): effective

Nc1nc(N)c2ncn([C@H]3C=C[C@@H](CO)C3)c2n1 (racemic) [Compound 15a, (±)-(1α,4α)-4-(2,6-Diamino-9H-purin-9-yl)-2-cyclopentenylcarbinol]
CC50 [4]: > 125 µg/mL | EC50 (HIV [1]; [9]): 1.9 µg/mL (≈ 7.71 µM) | activity against HIV (HIV [1]): active | inhibit the infection and killing of human T lymphocytes (Th cells) by HIV (HIV [1]): effective

Nc1nc(Cl)c2nnn([C@H]3C=C[C@@H](CO)C3)c2n1 (racemic) [Compound 16a]
IC50 (P-388 Leukemia Cells): 1 µg/mL (≈ 3.75 µM)

Nc1nc2c(nnn2[C@H]2C=C[C@@H](CO)C2)c(=O)[nH]1 (racemic) [Compound 17a]
IC50 (P-388 Leukemia Cells): 4.5 µg/mL (≈ 18.1 µM)

Nc1nc(O)c2ncn([C@H]3C=C[C@@H](CO)C3)c2n1 [(-)14a, (1S,4R)-4-(2-Amino-6-hydroxy-9H-Purin-9-yl)-2-cyclopentenyl Carbinol]
CC50 ([4]; first ID₅₀ column (c2), Cell Line MT-2C, read-out: ID₅₀): 135 µg/mL (≈ 546 µM) | EC50 (HIV [1]; [9]): 0.325 µg/mL (≈ 1.31 µM) | activity against HIV (HIV [1]): highly active | CC50 [5]: 189 µg/mL (≈ 764 µM)

[N-]=[N+]=N[C@H]1C[C@H](n2ccc(=O)[nH]c2=O)O[C@@H]1CO [CS-87, 3′-azido-2′,3′-dideoxyuridine]
activity against HIV in vitro (HIV [6]): significant activity against HIV in vitro; also recorded: significantly inhibit HIV replication in vitro

NC(=O)c1ncn([C@@H]2O[C@H](CO)[C@@H](O)[C@H]2O)n1 [Ribavirin, 1-β-D-Ribofuranosyl-1H-1,2,4-triazole-3-carboxamide]
effect in AIDS patients (HIV [7]): inhibited viral replication

Cc1cn([C@H]2C=C[C@@H](CO)O2)c(=O)[nH]c1=O [d4T, 2′,3′-dideoxy-2′,3′-didehydrothymidine]
activity against HIV in vitro (HIV [6]): potent inhibitor of HIV replication in vitro

OC[C@@H]1CC[C@H](n2cnc3c(O)ncnc32)O1 [ddI, 2′,3′-Dideoxyinosine]
activity against HIV in vitro (HIV [6]): inhibit HIV-induced cytopathic effects in vitro; also recorded: significant antiviral activity against HIV in vitro
